The structures appear in SMILES notation.

By IC50 is commonly meant the concentration needed to halve the response being measured.

The experiment deals with human PAD4 (hPAD4) (Homo sapiens, UniProt Q9UM07). Nature of the experiment: RFMS human PAD4 functional assay (rapid-fire mass spectrum). The conditions noted are these: 5 nM hPAD4 enzyme, 250 μM BAEE, 50 μM Calcium; 30 min preincubation, 90 min reaction at 37° C. The class given is biochemical. How it is done: Compounds of the present invention were assayed as inhibitors of PAD4 using the assay protocol described below.
human PAD4 (hPAD4), sequence (Q9UM07 whole entry): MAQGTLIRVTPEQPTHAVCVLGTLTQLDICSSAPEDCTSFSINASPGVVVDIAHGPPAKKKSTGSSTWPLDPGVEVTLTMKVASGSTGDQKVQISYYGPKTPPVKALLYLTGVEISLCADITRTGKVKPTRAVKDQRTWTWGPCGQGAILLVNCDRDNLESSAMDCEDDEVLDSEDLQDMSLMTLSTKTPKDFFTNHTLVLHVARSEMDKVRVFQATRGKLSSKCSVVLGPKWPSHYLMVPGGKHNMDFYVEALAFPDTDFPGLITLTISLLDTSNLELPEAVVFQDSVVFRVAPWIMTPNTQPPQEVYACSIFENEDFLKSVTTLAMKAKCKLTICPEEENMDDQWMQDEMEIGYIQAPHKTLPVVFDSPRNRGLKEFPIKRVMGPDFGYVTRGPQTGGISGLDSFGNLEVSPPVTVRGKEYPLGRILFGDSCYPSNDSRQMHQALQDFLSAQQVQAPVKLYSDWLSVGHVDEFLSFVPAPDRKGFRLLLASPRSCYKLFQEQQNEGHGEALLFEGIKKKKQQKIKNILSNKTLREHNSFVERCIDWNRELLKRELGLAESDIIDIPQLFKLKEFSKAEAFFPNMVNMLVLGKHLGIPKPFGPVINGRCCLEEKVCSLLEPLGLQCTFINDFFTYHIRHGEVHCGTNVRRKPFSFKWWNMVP
RFMS tinman PAD4 Functional Assay:
Compounds were solubilized in 100% DMSO to achieve a 10 mM compound concentration. Compound stock solutions were stored at RT. A series of dilutions were prepared in DMSO and mixed 8 times with 20 μl, mixing volume. Final top concentration of compound in the assay is 50 μM. […] 1-90 min enzyme/substrate reaction, 30 min reaction with phenyl glyoxal at 37° C. • Stop solution: 40 μl 5% TCA in ACN
0.13 μL of compound solution was added to 13 μL of 10 nM PAD4 in assay buffer. After 30 min 13 μl of 500 μM of BAEE was added in 25 mM hepes, pH 7.5, 5 mM NaCl, 1 mM DTT, 0.2 mg/ml BS A, 0.01% CHAPS, 50 μM Calcium, 5 μM TPEN was added and the reaction incubated for 90 min at 37° C. The enzymatic reaction was quenched by addition of 15 μl of 6.1N TCA, 100% Final Concentration is 20%, 35 μl of 8.5 mM phenyl glyoxal (final concentration 4 mM) is then added and the reaction is incubated for 30 min at 37° C.
After 30 minutes the plates are spun down to remove all precipitate. The enzyme reaction was quenched with an equal volume of methanol containing internal standard (modified citrulline). Samples were loaded onto the Rapid Fire RF300 system (Agilent) wherein they were first sipped for 1000 ms and then directly loaded to a C18 separations cartridge using a mixture of acetonitrile containing 0.01% formic acid for 3000 ms desalting. The flow rate of the mobile phase was 1.5 ml/min.
The dwell time for each transition was set at 200 ms, and the ESI voltage was used at 5500 with a source temperature of 400° C. Extracted ion peaks for each transition were integrated using the Rapid Fire Integrator software. Peak area of analyte was normalized with internal standard).

With `COc1cc(C(=O)N2CC3CCC2[C@@H]3N)cc2nc(-c3cc4cccnc4n3CC3CC3)n(CC3CN(C(=O)[C@H]4C[C@@H]4c4ccccc4)C3)c12` (stereo partly drawn) [Example 103, (1R,4R,7R)-2-{2-[1-(cyclopropylmethyl)-1H-pyrrolo[2,3-b]pyridin-2-yl]-7-methoxy-1-({1-[(1S,2S)-2-phenylcyclopropanecarbonyl]aze-tidin-3-yl}-methyl)-1H-1,3-benzodiazole-5-carbonyl}-2-azabicyclo[2.2.1]heptan-7-amine], the IC50 worked out at 0.014 µM.

For `COc1cc(C(=O)N2CC3CCC2[C@@H]3N)cc2nc(-c3cc4ccccc4n3CC3CC3)n(CC3(F)CN(C(=O)c4ccccc4)C3)c12` (stereo partly drawn) [Example 432, (7R)-2-{1-[(1-benzoyl-3-fluoroazetidin-3-yl)methyl]-2-[1-(cyclopropylmethyl)-1H-indol-2-yl]-7-methoxy-1H-1,3-benzodiazole-5-carbonyl}-2-azabicyclo[2.2.1]heptan-7-amine], the IC50 was 0.031 µM. For `COC(=O)N1CC(Cn2c(-c3cc4cccnc4n3CC3CC3)nc3cc(C(=O)N4CCC[C@@H](N)C4)cc(OC)c32)C1` [Example 192, methyl 3-({5-[(3R)-3-aminopiperidine-1-carbonyl]-2-[1-(cyclopropylmethyl)-1H-pyrrolo[2,3-b]pyridin-2-yl]-7-methoxy-1H-1,3-benzodiazol-1-yl}methyl)azetidine-1-carboxylate] the value was 1.57 µM; for `COc1cc(C(=O)N2CC3CCC2[C@@H]3N)cc2nc(-c3cc4cccnc4n3CC3CC3)n(CC3CN(C(=O)c4cccc(F)c4F)C3)c12` (stereo partly drawn) [Example 423, (7R)-2-{2-[1-(cyclopropylmethyl)-1H-pyrrolo[2,3-b]pyridin-2-yl]-1-{[1-(2,3-difluorobenzoyl)azetidin-3-yl]methyl}-7-methoxy-1H-1,3-benzodiazole-5-carbonyl}-2-azabicyclo[2.2.1]heptan-7-amine], 0.023 µM; for `COc1cc(C(=O)N2C[C@H]3CC[C@@H]2[C@@H]3N)cc2nc(-c3cc4ccccc4n3CC3CC3)n(CC3CN(C(=O)c4ccncc4)C3)c12` [Example 138, (1R,4R,7R)-2-{2-[1-(cyclopropylmethyl)-1H-indol-2-yl]-7-methoxy-1-{[1-(pyridine-4-carbonyl)azetidin-3-yl]methyl}-1H-1,3-benzodiazole-5-carbonyl}-2-azabicyclo[2.2.1]heptan-7-amine], 0.011 µM.

On to `COc1cc(C(=O)N2CC3CCC2[C@@H]3N)cc2nc(-c3cc4ccccc4n3CC3CC3)n(Cc3cnn(C)c3C)c12` (stereo partly drawn) [Example 482, (7R)-2-{2-[1-(cyclopropylmethyl)-1H-indol-2-yl]-1-[(1,5-dimethyl-1H-pyrazol-4-yl)methyl]-7-methoxy-1H-1,3-benzodiazole-5-carbonyl}-2-azabicyclo[2.2.1]heptan-7-amine], for which the IC50 stood at 0.023 µM. Regarding `COc1ccc(-n2cc(Cn3c(-c4cc5ccccc5n4CC4CC4)nc4cc(C(=O)N5CC6CCC5[C@@H]6N)cc(OC)c43)cn2)cn1` (stereo partly drawn) [Example 354, (7R)-2-{2-[1-(cyclopropylmethyl)-1H-indol-2-yl]-7-methoxy-1-{[1-(6-methoxypyridin-3-yl)-1H pyrazol-4-yl]methyl}-1H-1,3-benzodiazole-5-carbonyl}-2-azabicyclo[2.2.1]heptan-7-amine], the IC50 came out at 0.022 µM.

Consider `COc1cc(C(=O)N2CC3CCC2[C@@H]3N)cc2nc(-c3cc4cccnc4n3CC3CC3)n(CC3(F)CN(C(=O)c4ccccc4)C3)c12` (stereo partly drawn) [Example 438, (7R)-2-{1-[(1-benzoyl-3-fluoroazetidin-3-yl)methyl]-2-[1-(cyclopropymethyl)-1H-pyrrolo[2,3-b]pyridin-2-yl]-7-methoxy-1H-1,3-benzodiazole-5-carbonyl}-2-azabicyclo[2.2.1]heptan-7-amine], for which the IC50 is 0.035 µM. For `COc1cc(C(=O)N2CC3CCC2[C@@H]3N)cc2nc(-c3cc4ccccc4n3CC3CC3)n(Cc3cnn(-c4cc(F)cnc4O)c3)c12` (stereo partly drawn) [Example 376, 3-[4-({5-[(7R)-7-amino-2-azabicyclo[2.2.1]heptane-2-carbonyl]-2-[1-(cyclopropylmethyl)-1H-indol-2-yl]-7-methoxy-1H-1,3-benzodiazol-1-yl}methyl)-1H-pyrazol-1-yl]-5-fluoropyridin-2-ol] the value was 0.037 µM. Consider `COc1cc(C(=O)N2C[C@H]3CC[C@@H]2[C@@H]3N)cc2nc(-c3cc4ccccc4n3CC3CC3)n(CC3CN(C(=O)c4ccc(O)cc4F)C3)c12` [Example 147, 4-[3-({5-[(1R,4R,7R)-7-amino-2-azabicyclo[2.2.1]heptane-2-carbonyl]-2-[1-(cyclopropylmethyl)-1H-indol-2-yl]-7-methoxy-1H-1,3-benzodiazol-1-yl}methyl)azetidine-1-carbonyl]-3-fluorophenol], for which the IC50 is 0.019 µM. For `Cc1cc(C(=O)N2CC3CCC2[C@@H]3N)cc2nc(-c3cc4ccccc4n3CC3CC3)n(CC3CN(C(=O)c4ccc(C#N)cc4)C3)c12` (stereo partly drawn) [Example 449, 4-[3-({5-[(7R)-7-amino-2-azabicyclo[2.2.1]heptane-2-carbonyl]-2-[1-(cyclopropylmethyl)-1H-indol-2-yl]-7-methyl-1H-1,3-benzodiazol-1-yl}methyl)azetidine-1-carbonyl]benzonitrile] the value was 0.044 µM; for `N[C@@H]1C2CCC1N(C(=O)c1cc(F)c3c(c1)nc(-c1cc4cccnc4n1CC1CC1)n3CC1CN(C(=O)c3ccncc3)C1)C2` (stereo partly drawn) [Example 466, (7R)-2-{2-[1-(cyclopropylmethyl)-1H-pyrrolo[2,3-b]pyridin-2-yl]-7-fluoro-1-{[1-(pyridine-4-carbonyl)azetidin-3-yl]methyl}-1H-1,3-benzodiazole-5-carbonyl}-2-azabicyclo[2.2.1]heptan-7-amine], 0.084 µM. For `COc1cc(C(=O)N2C[C@H]3CC[C@@H]2[C@@H]3N)cc2nc(-c3cc4cccnc4n3C)n(CC3CN(c4cncnc4C#N)C3)c12` [Example 60, 5-[3-({5-[(1R,4R,7R)-7-amino-2-azabicyclo[2.2.1]heptane-2-carbonyl]-7-methoxy-2-{1-methyl-1H-pyrrolo[2,3-b]pyridin-2-yl}-1H-1,3-benzodiazol-1-yl}methyl)azetidin-1-yl]pyrimidine-4-carbonitrile], the IC50 is 0.171 µM. For `COc1cc(C(=O)N2CC3CCC2[C@@H]3N)cc2nc(-c3cc4ccccc4n3CC3CC3)n(CC3CN(C(=O)C4CCC(F)(F)C4)C3)c12` (stereo partly drawn) [Example 139, (1R,4R,7R)-2-{2-[1-(cyclopropylmethyl)-1H-indol-2-yl]-1-{[1-(3,3-difluorocyclopentanecarbonyl)aze-tidin-3-yl]methyl}-7-methoxy-1H-1,3-benzodiazole-5-carbonyl}-2-azabicyclo[2.2.1]heptan-7-amine] the value was 0.012 µM; for `COc1cc(C(=O)N2CC3CCC2[C@@H]3N)cc2nc(-c3cc4cccnc4n3CC3CC3)n(C3CN(S(=O)(=O)C4CC4)C3)c12` (stereo partly shown) [Example 328], 0.125 µM.

In the case of `COc1cc(C(=O)N2C[C@H]3CC[C@@H]2[C@@H]3N)cc2nc(-c3cc4cccnc4n3C)n(CC3CN(c4cncc(C#N)n4)C3)c12` [Example 40, 6-[3-({5-[(1R,4R,7R)-7-amino-2-azabicyclo[2.2.1]heptane-2-carbonyl]-7-methoxy-2-{1-methyl-1H-pyrrolo[2,3-b]pyridin-2-yl}-1H-1,3-benzodiazol-1-yl}methyl)azetidin-1-yl]pyrazine-2-carbonitrile], the IC50 stood at 0.098 µM.

In the case of `COc1cc(C(=O)N2C[C@H]3CC[C@@H]2[C@@H]3N)cc2nc(-c3cc4cccnc4n3CC3CC3)n(C3CN(C(C)=O)C3)c12` [Example 191, 1-(3-{5-[(1R,4R,7R)-7-amino-2-azabicyclo[2.2.1]heptane-2-carbonyl]-2-[1-(cyclopropylmethyl)-1H-pyrrolo[2,3-b]pyridin-2-yl]-7-methoxy-1H-1,3-benzodiazol-1-yl}azetidin-1-yl)ethan-1-one], the IC50 is 0.884 µM. For `COc1cc(C(=O)N2C[C@H]3CC[C@@H]2[C@@H]3N)cc2nc(-c3cc4cccnc4n3CC3CC3)n(C3CN(c4ccncn4)C3)c12` [Example 86, (1R,4R,7R)-2-{2-[1-(cyclopropylmethyl)-1H-pyrrolo[2,3-b]pyridin-2-yl]-7-methoxy-1-[1-(pyrimidin-4-yl)azetidin-3-yl]-1H-1,3-benzodiazole-5-carbonyl}-2-azabicyclo[2.2.1]heptan-7-amine] the value was 1.68 µM; for `CNc1cc(C(=O)N2CC(Cn3c(-c4cc5ccccc5n4CC4CC4)nc4cc(C(=O)N5CC6CCC5[C@@H]6N)cc(OC)c43)C2)ccn1` (stereo partly drawn) [Example 412, (7R)-2-{2-[1-(cyclopropylmethyl)-1H-indol-2-yl]-7-methoxy-1-({1-[2-(methylamino)pyridine-4-carbonyl]azetidin-3-yl}methyl)-1H-1,3-benzodiazole-5-carbonyl}-2-azabicyclo[2.2.1]heptan-7-amine], 0.018 µM.

The record behind these values is US12692254B2, “Benzimidazole inhibitors of PAD enzymes” (BRISTOL-MYERS SQUIBB COMPANY, priority 2018, dated 2026).
